# Test system: FLAP (5-lipoxygenase activating protein)
# Test: In vitro binding test: displacement of [3H]-7-chloro-3-(5-((3-fluoropyridin-2-yl)methoxy)-2-methylphenyl)-3,4-dihydroquinazolin-2(1H)-one from Sf9 microsome fractions
# Parameters: species or system human and mouse
# Conditions: Sf9 microsome fractions expressing FLAP; 100% = radioligand binding with 10 μM sodium 3-(3-(tert-butylsulfanyl)-1-(4-chlorobenzyl)-5-isopropyl-1H-indol-2-yl)-2,2-dimethylpropanoate, 0% = DMSO; test compound concentration not given
# Summary of the method: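 Sf9 microsomes expressing human or mouse FLAP (2 μg/mL) preincubated with compound 10 min at room temperature, then 120 nM tritiated quinazolinone ligand added for 60 min; buffer 100 mM Tris-HCl pH 7.5 with NaCl, EDTA, DTT, glycerol, Tween20. Bound ligand filtered and counted by scintillation; 10 μM indole propanoate defines 100% inhibition, DMSO 0%.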
row,SMILES,inhibitory rate (%)
1,"COC(=O)c1ccc(OCc2c(F)cccc2F)cc1N1Cc2ccccc2NC1=O [Example 188, methyl 4-((2,6-difluorobenzyl)oxy)-2-(2-oxo-1,4-dihydroquinazolin-3(2H)-yl)benzoate]",83%
2,"Cc1cc2c(cc1N1Cc3c(cc(-n4cc(C(F)(F)F)cn4)nc3C3CC3)NC1=O)OC(c1ncccc1F)CC2 (stereo not shown) [Example 154, 5-cyclopropyl-3-(2-(3-fluoropyridin-2-yl)-6-methyl-3,4-dihydro-2H-chromen-7-yl)-7-(4-(trifluoromethyl)-1H-pyrazol-1-yl)-3,4-dihydropyrido[4,3-d]pyrimidin-2(1H)-one]",100%
3,"O=C1Nc2c(N3CCC(O)CC3)ncc(Cl)c2CN1c1cc2c(cc1Cl)CCC(c1ncccc1F)O2 (stereo not shown) [Example 109, 5-chloro-3-(6-chloro-2-(3-fluoropyridin-2-yl)-3,4-dihydro-2H-chromen-7-yl)-8-(4-hydroxypiperidin-1-yl)-3,4-dihydropyrido[3,4-d]pyrimidin-2(1H)-one]",106%
4,"CC(C)(O)CNC(=O)c1ccc(OCc2c(F)cccc2F)cc1N1Cc2ccccc2NC1=O [Example 190, 4-((2,6-difluorobenzyl)oxy)-N-(2-hydroxy-2-methylpropyl)-2-(2-oxo-1,4-dihydroquinazolin-3(2H)-yl)benzamide]",55%
5,"Cc1cc2c(cc1N1Cc3c(ccnc3C(F)(F)F)NC1=O)OC(c1ncccc1F)CC2 (stereo not shown) [Example 4, 3-(2-(3-fluoropyridin-2-yl)-6-methyl-3,4-dihydro-2H-chromen-7-yl)-5-(trifluoromethyl)-3,4-dihydropyrido[4,3-d]pyrimidin-2(1H)-one]",103%
6,"Cc1ccc(OCc2c(F)cccc2F)cc1N1Cc2ccc(CO)cc2NC1=O [Example 181, 3-(5-((2,6-difluorobenzyl)oxy)-2-methylphenyl)-7-(hydroxymethyl)-3,4-dihydroquinazolin-2(1H)-one]",91%
7,"Cc1cc2c(cc1N1Cc3c(Cl)cnc(-c4c(C)nn(C)c4C)c3NC1=O)OC(c1ncccc1F)CC2 (stereo not shown) [Example 13, 5-chloro-3-(2-(3-fluoropyridin-2-yl)-6-methyl-3,4-dihydro-2H-chromen-7-yl)-8-(1,3,5-trimethyl-1H-pyrazol-4-yl)-3,4-dihydropyrido[3,4-d]pyrimidin-2(1H)-one]",101%
8,"O=C1Nc2c(ccnc2C(F)(F)F)CN1c1cc2c(cc1Cl)CCC(c1ncccc1F)O2 (stereo not shown) [Example 66, 3-(6-chloro-2-(3-fluoropyridin-2-yl)-3,4-dihydro-2H-chromen-7-yl)-8-(trifluoromethyl)-3,4-dihydropyrido[3,4-d]pyrimidin-2(1H)-one]",98%
9,"Cc1ccc(OCc2c(F)cccc2F)cc1N1Cc2c(cccc2C(C)(C)O)NC1=O [Example 202, 3-(5-((2,6-difluorobenzyl)oxy)-2-methylphenyl)-5-(2-hydroxypropan-2-yl)-3,4-dihydroquinazolin-2(1H)-one]",72%
10,"O=C1Nc2cc(CO)nc(C3CC3)c2CN1c1cc2c(cc1Cl)CCC(c1ncccc1F)O2 (stereo not shown) [Example 73, 3-(6-chloro-2-(3-fluoropyridin-2-yl)-3,4-dihydro-2H-chromen-7-yl)-5-cyclopropyl-7-(hydroxymethyl)-3,4-dihydropyrido[4,3-d]pyrimidin-2(1H)-one]",109%
11,"O=C(NCC(F)(F)F)c1cc2c(c(C3CC3)n1)CN(c1cc3c(cc1Cl)CCC(c1ncccc1F)O3)C(=O)N2 (stereo not shown) [Example 149, 3-(6-chloro-2-(3-fluoropyridin-2-yl)-3,4-dihydro-2H-chromen-7-yl)-5-cyclopropyl-2-oxo-N-(2,2,2-trifluoroethyl)-1,2,3,4-tetrahydropyrido[4,3-d]pyrimidine-7-carboxamide]",107%
12,"Cc1cc2c(cc1N1Cc3c(ccnc3C(F)(F)F)NC1=O)O[C@H](c1ncccc1F)CC2 [Example 6, 3-((2S)-2-(3-fluoropyridin-2-yl)-6-methyl-3,4-dihydro-2H-chromen-7-yl)-5-(trifluoromethyl)-3,4-dihydropyrido[4,3-d]pyrimidin-2(1H)-one]",98%
13,"O=C1Nc2ccccc2CN1c1cc(OCc2ncccc2F)ccc1C1CC1 [Example 213, 3-(2-cyclopropyl-5-((3-fluoropyridin-2-yl)methoxy)phenyl)-3,4-dihydroquinazolin-2(1H)-one]",114%
14,"O=C1NCCN1c1cc2c(c(C3CC3)n1)CN(c1cc3c(cc1Cl)CCC(c1ncccc1F)O3)C(=O)N2 (stereo not shown) [Example 131, 3-(6-chloro-2-(3-fluoropyridin-2-yl)-3,4-dihydro-2H-chromen-7-yl)-5-cyclopropyl-7-(2-oxoimidazolidin-1-yl)-3,4-dihydropyrido[4,3-d]pyrimidin-2(1H)-one]",101%
15,"Cc1cc2c(cc1N1Cc3c(cc(Oc4ccnn4C)nc3C3CC3)NC1=O)OC(c1ncccc1F)CC2 (stereo not shown) [Example 141, 5-cyclopropyl-3-(2-(3-fluoropyridin-2-yl)-6-methyl-3,4-dihydro-2H-chromen-7-yl)-7-((1-methyl-1H-pyrazol-5-yl)oxy)-3,4-dihydropyrido[4,3-d]pyrimidin-2(1H)-one]",102%
16,"O=C1Nc2cc(OC(F)F)nc(C3CC3)c2CN1c1cc2c(cc1Cl)CC[C@H](c1ncccc1F)O2 [Example 19, 3-((2R)-6-chloro-2-(3-fluoropyridin-2-yl)-3,4-dihydro-2H-chromen-7-yl)-5-cyclopropyl-7-(difluoromethoxy)-3,4-dihydropyrido[4,3-d]pyrimidin-2(1H)-one]",102%
17,"O=C1Nc2c(N3CCCC3)ncc(Cl)c2CN1c1cc2c(cc1Cl)CCC(c1ncccc1F)O2 (stereo not shown) [Example 153, 5-chloro-3-(6-chloro-2-(3-fluoropyridin-2-yl)-3,4-dihydro-2H-chromen-7-yl)-8-(pyrrolidin-1-yl)-3,4-dihydropyrido[3,4-d]pyrimidin-2(1H)-one]",104%
18,"COc1cccnc1C1CCc2cc(Cl)c(N3Cc4c(ccnc4C4CC4)NC3=O)cc2O1 (stereo not shown) [Example 64, 3-(6-chloro-2-(3-methoxypyridin-2-yl)-3,4-dihydro-2H-chromen-7-yl)-5-cyclopropyl-3,4-dihydropyrido[4,3-d]pyrimidin-2(1H)-one]",94%

# Continued, values first:
row,inhibitory rate (%),SMILES
1,95%,"Cc1ccc(OCc2ncccc2F)cc1N1Cc2c(cc[nH]c2=O)NC1=O [Example 310, 3-(5-((3-fluoropyridin-2-yl)methoxy)-2-methylphenyl)-4,6-dihydropyrido[4,3-d]pyrimidine-2,5(1H,3H)-dione]"
2,87%,"N#Cc1ccc(OCc2ncccc2F)cc1N1Cc2ccccc2NC1=O [Example 224, 4-((3-fluoropyridin-2-yl)methoxy)-2-(2-oxo-1,4-dihydroquinazolin-3(2H)-yl)benzonitrile]"
3,85%,"COc1cccc2c1CN(c1cc(OCc3ncccc3F)ccc1C)C(=O)N2 [Example 308, 3-(5-((3-fluoropyridin-2-yl)methoxy)-2-methylphenyl)-5-methoxy-3,4-dihydroquinazolin-2(1H)-one]"
4,106%,"Cc1ccc(OCc2ncccc2F)cc1-n1c(=O)[nH]c2cnccc2c1=O [Example 339, 3-(5-((3-fluoropyridin-2-yl)methoxy)-2-methylphenyl)pyrido[3,4-d]pyrimidine-2,4(1H,3H)-dione]"
5,105%,"Cc1ccc(S(=O)(=O)Oc2ccc3c(c2)NC(=O)N(c2cc(OCc4ncccc4F)ccc2C)C3)cc1 [Example 252, 3-(5-((3-fluoropyridin-2-yl)methoxy)-2-methylphenyl)-2-oxo-1,2,3,4-tetrahydroquinazolin-7-yl 4-methylbenzenesulfonate]"
6,105%,"O=C1Nc2cn(CC3CC3)nc2CN1c1cc(OCc2ncccc2F)ccc1Br [Example 360, 6-(2-bromo-5-((3-fluoropyridin-2-yl)methoxy)phenyl)-2-(cyclopropylmethyl)-2,4,6,7-tetrahydro-5H-pyrazolo[4,3-d]pyrimidin-5-one]"
7,95%,"O=c1[nH]c2ccccc2c(=O)n1-c1cc2c(cc1Cl)CCC(c1ncccc1F)O2 (stereo not shown) [Example 372, 3-(6-chloro-2-(3-fluoropyridin-2-yl)-3,4-dihydro-2H-chromen-7-yl)quinazoline-2,4(1H,3H)-dione]"
8,100%,"Cc1ccc(OCc2ncccc2F)cc1N1Cc2ccc(C(=O)Nc3ccccn3)cc2NC1=O [Example 271, 3-(5-((3-fluoropyridin-2-yl)methoxy)-2-methylphenyl)-2-oxo-N-(pyridin-2-yl)-1,2,3,4-tetrahydroquinazoline-7-carboxamide]"
9,107%,"COCCOc1ccc2c(=O)n(-c3cc(OCc4ncccc4F)ccc3C)c(=O)n(CCOC)c2c1 [Example 352, 3-(5-((3-fluoropyridin-2-yl)methoxy)-2-methylphenyl)-7-(2-methoxyethoxy)-1-(2-methoxyethyl)quinazoline-2,4(1H,3H)-dione]"
10,95%,"Cc1ccc(OCc2c(F)cccc2F)cc1N1Cc2ncccc2NC1=O [Example 223, 3-(5-((2,6-difluorobenzyl)oxy)-2-methylphenyl)-3,4-dihydropyrido[3,2-d]pyrimidin-2(1H)-one]"
11,90%,"Cc1ccc(OCc2ncccc2F)cc1N1Cc2c(ccnc2C#N)NC1=O [Example 321, 3-(5-((3-fluoropyridin-2-yl)methoxy)-2-methylphenyl)-2-oxo-1,2,3,4-tetrahydropyrido[4,3-d]pyrimidine-5-carbonitrile]"
12,99%,"O=C1Nc2cccc(Cl)c2CN1c1cc(OCc2ncccc2F)ccc1Br [Example 277, 3-(2-bromo-5-((3-fluoropyridin-2-yl)methoxy)phenyl)-5-chloro-3,4-dihydroquinazolin-2(1H)-one]"
13,111%,"COCCn1c(=O)n(-c2cc3c(cc2C)CCC(c2ncccc2F)O3)c(=O)c2ccccc21 (stereo not shown) [Example 328, 3-(2-(3-fluoropyridin-2-yl)-6-methyl-3,4-dihydro-2H-chromen-7-yl)-1-(2-methoxyethyl)quinazoline-2,4(1H,3H)-dione]"

# Source: patent US20150299188A1, “HETEROCYCLIC COMPOUND” (priority 2012, published 2015)
